Data from PubChem BioAssay (NCI).
“And” between values parts separate entries of the source, which are not always exact repeats. Equal values may be shown once.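 Compound exposure: 48 hours, 5 concentrations, 96-well plates. Here, GI50 denotes the concentration required for 50% inhibition of growth. The concentration for full growth arrest is given as TGI.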

Legend:
Test in all cases: NCI anticancer screen, dose series, 48 h
[1] = test system: SNB-75 CNS
[2] = test system: U251 CNS
[3] = test system: SW-620 colon
[4] = test system: NCI-H23 lung
[5] = test system: SR leukemia
[6] = test system: UACC-257 melanoma
[7] = test system: K-562 leukemia
[8] = test system: T-47D breast
[9] = test system: RXF 393 renal
[10] = test system: LOX IMVI melanoma

SMILES	GI50 [1]	TGI [1]	GI50 [2]	TGI [2]	GI50 [3]	TGI [3]	GI50 [4]	TGI [4]	GI50 [5]	TGI [5]	GI50 [6]	TGI [6]	GI50 [7]	TGI [7]	GI50 [8]	TGI [8]	GI50 [9]	TGI [9]	GI50 [10]	TGI [10]
O=c1oc2c3ccc4cnccc4c3[nH]c2c2ccccc12	20.6 µM	65.6 µM	7.57 µM	20.8 µM	4.58 µM	23.5 µM	23.3 µM	80.1 µM	1.78 µM	4.19 µM	20.3 µM	57.6 µM	27.7 µM	> 100 µM	9.78 µM	> 100 µM	5.72 µM	19.4 µM	12.1 µM	28.2 µM
COC(=O)[C@]12CC[C@@H](C)[C@H](C)[C@@H]1C1=CC[C@@H]3[C@@]4(C)C(C=O)=C[C@@](C)(COS(C)(=O)=O)C4[C@H](O)C[C@@]3(C)[C@]1(C)CC2 (stereo partly drawn)	1.51 µM	8.86 µM	1.65 µM	3.17 µM	2.36 µM	5.7 µM	1.68 µM	3.63 µM	0.299 µM	1.38 µM	1.85 µM	3.65 µM	0.797 µM	6.28 µM	1.8 µM	5.93 µM	1.53 µM	2.9 µM	1.47 µM	2.81 µM
CNC1=C(C(=O)OC)SC(c2ccccc2)(c2ccccc2)SC1	26.1 µM	> 100 µM	34.8 µM	> 100 µM	15 µM	> 100 µM	17.5 µM	> 100 µM	2.4 µM	7.93 µM	9.2 µM	> 100 µM	4.73 µM	> 100 µM	34.6 µM	> 100 µM	22 µM	> 100 µM	21.2 µM	> 100 µM
CCNNC(=O)[C@@H]1[C@H](c2cc(OC)c(OC)c(OC)c2)c2cc3c(cc2[C@H](O)[C@H]1CO)OCO3	0.442 µM	> 100 µM	0.321 µM	> 100 µM	0.396 µM	> 100 µM	0.372 µM	> 100 µM	0.315 µM	> 100 µM	4.37 µM		0.349 µM	> 100 µM	> 100 µM	> 100 µM	0.34 µM	> 100 µM	0.357 µM	> 100 µM
CN(CC(=O)O)Cc1oc(CO)cc(=O)c1O		> 100 µM		> 100 µM		> 100 µM		> 100 µM		> 100 µM		> 100 µM		> 100 µM		> 100 µM		> 100 µM		> 100 µM
C=C1C(=O)OC2/C=C(\CO)CC/C=C(\CO)CC(OC(=O)C(C)C)C12 (stereo not drawn)		32.2 µM		43.3 µM		22.9 µM		38.5 µM		> 52.1 µM		27 µM		> 24.2 µM		24.8 µM		19.3 µM		45.8 µM
CCc1ccc2nccc(NCCCN(C)C)c2c1[N+](=O)[O-]		> 100 µM		> 100 µM		> 100 µM		> 100 µM		> 100 µM		81.3 µM		> 100 µM		> 100 µM		> 100 µM		> 100 µM
Cc1nc2c(N3CCCC3)nc(N3CCNCC3)nc2nc1NCc1ccccc1	1.85 µM	4.11 µM and 4.69 µM	4.27 µM	11.7 µM and 13 µM	5.9 µM	12.5 µM and 7.27 µM	6.77 µM	12.7 µM and 23.7 µM	1.53 µM	20 µM and > 20.8 µM	7.15 µM	12.9 µM and 3.64 µM	1.06 µM	23.8 µM	3.23 µM	13.8 µM and 4.96 µM	4.81 µM	11 µM and 2.66 µM	2.47 µM	16.8 µM and 3.19 µM
CCOC(=O)C(C(=O)OCC)C(=O)c1ccccc1C(=O)c1ccccc1		> 100 µM		> 100 µM		50.5 µM		> 100 µM		48.8 µM		> 100 µM		> 100 µM		> 100 µM		> 100 µM		> 100 µM
CC(C)C[C@H](NC(=O)CCn1ccc2ncccc2c1=O)B(O)O	14.5 µM	47.5 µM	24.9 µM	> 100 µM	4.23 µM	> 45.9 µM	14.9 µM	> 100 µM	3.08 µM	> 100 µM	8.25 µM	44.1 µM	13.2 µM	> 100 µM	5.31 µM	> 55 µM	3.54 µM	15.2 µM	4.53 µM	18.7 µM
Cc1ncc(C(=O)Nc2ccc(CN3CCN(C)CC3)c(C(F)(F)F)c2)cc1C#Cc1c(N)ncc2ccccc12	0.458 µM	0.975 µM	0.539 µM	1.07 µM	0.227 µM	0.754 µM	0.439 µM	1.02 µM	0.26 µM	1.04 µM	0.477 µM	1.06 µM	0.00332 µM	0.453 µM	1.96 µM	7.7 µM	0.465 µM	0.915 µM	0.173 µM	0.605 µM
OCC(CCc1c[nH]c2ccccc12)c1c[nH]c2ccccc12 (stereo not drawn)		45.7 µM		30.4 µM		29.4 µM		30 µM		41.5 µM		24.7 µM		67.6 µM		35.6 µM		30.8 µM		27.3 µM
CCN(CC)CCn1c2ccc(OC)cc2c2sc3cc(OC)ccc3c(=O)c21	1.11 µM	6.48 µM	1.55 µM	3.63 µM	0.825 µM	2.41 µM	1.9 µM	4.34 µM	0.704 µM	3.05 µM	1.92 µM	3.94 µM	0.728 µM	2.76 µM	2 µM	4.89 µM	1.4 µM	2.79 µM	1.3 µM	2.74 µM
COc1cccc(N=N/C(=N\NC(=O)c2cc(Br)ccc2O)c2ccc(N(CCC#N)CCC#N)cc2OC)c1	19.6 µg/mL	69.5 µg/mL	34.4 µg/mL	> 150 µg/mL	63.1 µg/mL	> 150 µg/mL	68.5 µg/mL	> 150 µg/mL	71.4 µg/mL	> 150 µg/mL	87.8 µg/mL	> 150 µg/mL	25.4 µg/mL	> 150 µg/mL	64 µg/mL	> 150 µg/mL	70.4 µg/mL	> 150 µg/mL	15 µg/mL	15 µg/mL
O=C(N/N=C/c1ccc(Cl)cc1Cl)c1ccc2nc(-c3ccc(Cl)cc3)[nH]c2c1	1.59 µM	3.62 µM	2.1 µM	4.18 µM	1.83 µM	3.69 µM	1.93 µM	4.43 µM	1.01 µM	3.95 µM	2.14 µM	4.72 µM	0.969 µM	3.23 µM	1.79 µM	3.83 µM	1.61 µM	3.27 µM	1.57 µM	2.94 µM
COc1cccc(CCC(=O)c2cc3c(N)c(C(=O)Nc4cccc(Cl)c4C)sc3nc2C)c1	0.193 µM	1.54 µM	0.445 µM	> 100 µM	0.469 µM	> 100 µM	2.35 µM	> 100 µM	0.431 µM	> 100 µM	4.25 µM	> 100 µM	0.396 µM	> 100 µM	0.588 µM	> 100 µM	0.393 µM	2.95 µM	0.664 µM	> 100 µM
CC(C)C[C@H](NC(=O)[C@@H](NC(=O)c1cccc(-c2ccccc2)n1)[C@@H](C)O)B(O)O	0.0144 µM and 0.0105 µM	0.0454 µM and 0.0308 µM	0.0251 µM and 0.0176 µM	1.92 µM	0.00411 µM	2.34 µM	0.00633 µM		0.00301 µM	0.00843 µM and < 0.102 µM	0.00502 µM	0.0319 µM and 0.0213 µM	0.00649 µM and 0.019 µM	30.8 µM	0.00506 µM	0.0231 µM	0.00414 µM	0.0151 µM and < 0.0119 µM	0.00473 µM	0.0181 µM and 0.0119 µM
Nc1cc(S(N)(=O)=O)ccc1SSc1ccc(S(N)(=O)=O)cc1N		> 100 µM		> 100 µM		> 100 µM		> 100 µM		> 100 µM		> 100 µM		> 100 µM		> 100 µM		> 100 µM		> 100 µM
O=C(CNc1ccc2c(=S)c3ccccc3[nH]c2c1)Nc1ccccc1-c1ccccc1NC(=O)CNc1ccc2c(=S)c3ccccc3[nH]c2c1		71.9 µM		42.3 µM		39.5 µM		32.3 µM		41.1 µM		45.3 µM		> 53.6 µM		> 50.1 µM		56.6 µM		55.6 µM
Nc1ccc(C(OC(=O)c2cc3ccccc3c(Cc3c(O)c(C(=O)OC(c4ccc(N)cc4)(c4ccc(N)cc4)c4ccc(N)cc4)cc4ccccc34)c2O)(c2ccc(N)cc2)c2ccc(N)cc2)cc1	0.497 µM	11.7 µM	0.248 µM	12.6 µM	1.14 µM	13.9 µM	0.645 µM	17.3 µM	4.18 µM	> 100 µM	0.426 µM	5.96 µM	0.682 µM	> 100 µM	0.405 µM	18.9 µM	1.83 µM	6.7 µM	1.41 µM	43.4 µM
C[C@@H](COCCC(=O)N1CCN(c2ncc(C(F)(F)F)cn2)CC1)Nc1cn[nH]c(=O)c1C(F)(F)F	47.8 µM	> 100 µM	29.3 µM	> 100 µM	3.84 µM	> 100 µM	28.3 µM	> 100 µM	4.04 µM	> 100 µM	> 94.4 µM	> 100 µM	36.9 µM	> 100 µM	33.1 µM	> 100 µM	32.8 µM	> 100 µM	27.9 µM	> 100 µM
CN1C[C@@H]2Cn3c(c(C4=C(c5cn(C)c6ccccc56)C(=O)NC4=O)c4ccccc43)C[C@H]2C1	0.441 µM and 0.259 µM	3.79 µM and 3.6 µM	3.59 µM and 2.83 µM	7.27 µM and 6.37 µM	4.34 µM and 3.22 µM	9.21 µM and 8.94 µM	4.96 µM and 6.11 µM	10.7 µM and 15.3 µM	4.89 µM and 1.77 µM	14.4 µM and 7.38 µM	4.03 µM and 3.93 µM	8.01 µM and 7.6 µM	4.9 µM and 2.37 µM	10.4 µM and 6.88 µM	4.26 µM and 5.32 µM	9.46 µM and 11.5 µM	3.53 µM and 3.17 µM	7.19 µM and 6.68 µM	4.16 µM and 3.96 µM	7.9 µM and 7.86 µM
COc1cc(NC(=O)NCc2ccco2)ccc1-c1ccc(NC(=O)NCc2ccco2)cc1OC	1.02 µM	4 µM	0.957 µM	4.3 µM	6.15 µM	> 100 µM	2.99 µM	11 µM	0.458 µM	> 100 µM	2.72 µM	> 100 µM	0.773 µM	> 100 µM	2.38 µM	> 100 µM	1.88 µM	6.22 µM	1.28 µM	> 100 µM
CC1(C)CC([P+](c2ccccc2)(c2ccccc2)c2ccccc2)=NN1	5.3 µM	> 100 µM	2 µM	> 100 µM	4.57 µM	> 100 µM	4.28 µM	> 100 µM	1.2 µM	5.51 µM	2.82 µM	> 100 µM	3.55 µM	> 100 µM	0.91 µM	8.44 µM	28.2 µM	> 100 µM	3.74 µM	> 100 µM
NC(=O)c1ccccc1NC(=O)c1ccccc1Cl	> 100 µM	> 100 µM	> 100 µM	> 100 µM	> 100 µM	> 100 µM	> 100 µM	> 100 µM	> 100 µM	> 100 µM	> 100 µM	> 100 µM	> 100 µM	> 100 µM	> 100 µM	> 100 µM	> 100 µM	> 100 µM	> 100 µM	> 100 µM
NS(=O)(=O)c1ccc(-n2ncc3c(Nc4ccccc4)ncnc32)cc1	33.5 µM	> 100 µM	26.9 µM	> 100 µM	30.3 µM	> 100 µM	1.37 µM	23.8 µM	29.6 µM	> 100 µM	39.4 µM	> 100 µM	4.44 µM	37.7 µM	24.2 µM	> 100 µM	29.6 µM	> 100 µM	14.9 µM	70 µM
c1ccc(B2OCC(C3OB(c4ccccc4)OC4COB(c5ccccc5)OC43)O2)cc1 (stereo not drawn)		> 100 µM		> 100 µM		> 100 µM		> 100 µM		> 100 µM		> 100 µM		> 100 µM		> 100 µM		> 100 µM		> 100 µM
